# Results published in US10758534B2 (Vertex Pharmaceuticals Incorporated, priority 2014, dated 2020).
# Target: T1, F508del (Homo sapiens, UniProt P13569, DEL508-508)
# T1 construct: expressed in transfected cells
# Assay: Protocol 1: membrane potential optical assay (FLIPR III, voltage sensing dye), identification of potentiator compounds
# Assay type: cell-based
# Conditions: Table 3, compounds of Table 1
# Outline: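 Gating potentiation is read as a membrane-potential fluorescence change (FLIPR III, voltage-sensing dye) after one forskolin addition under a Cl− gradient, with gluconate replacing chloride, pH 7.4. Cells are F508del-expressing NIH3T3 mouse fibroblasts held 24 h at 27 °C and exposed to compound before dye loading.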
# T1 sequence (P13569 with tags, fused parts or gaps DEL508-508): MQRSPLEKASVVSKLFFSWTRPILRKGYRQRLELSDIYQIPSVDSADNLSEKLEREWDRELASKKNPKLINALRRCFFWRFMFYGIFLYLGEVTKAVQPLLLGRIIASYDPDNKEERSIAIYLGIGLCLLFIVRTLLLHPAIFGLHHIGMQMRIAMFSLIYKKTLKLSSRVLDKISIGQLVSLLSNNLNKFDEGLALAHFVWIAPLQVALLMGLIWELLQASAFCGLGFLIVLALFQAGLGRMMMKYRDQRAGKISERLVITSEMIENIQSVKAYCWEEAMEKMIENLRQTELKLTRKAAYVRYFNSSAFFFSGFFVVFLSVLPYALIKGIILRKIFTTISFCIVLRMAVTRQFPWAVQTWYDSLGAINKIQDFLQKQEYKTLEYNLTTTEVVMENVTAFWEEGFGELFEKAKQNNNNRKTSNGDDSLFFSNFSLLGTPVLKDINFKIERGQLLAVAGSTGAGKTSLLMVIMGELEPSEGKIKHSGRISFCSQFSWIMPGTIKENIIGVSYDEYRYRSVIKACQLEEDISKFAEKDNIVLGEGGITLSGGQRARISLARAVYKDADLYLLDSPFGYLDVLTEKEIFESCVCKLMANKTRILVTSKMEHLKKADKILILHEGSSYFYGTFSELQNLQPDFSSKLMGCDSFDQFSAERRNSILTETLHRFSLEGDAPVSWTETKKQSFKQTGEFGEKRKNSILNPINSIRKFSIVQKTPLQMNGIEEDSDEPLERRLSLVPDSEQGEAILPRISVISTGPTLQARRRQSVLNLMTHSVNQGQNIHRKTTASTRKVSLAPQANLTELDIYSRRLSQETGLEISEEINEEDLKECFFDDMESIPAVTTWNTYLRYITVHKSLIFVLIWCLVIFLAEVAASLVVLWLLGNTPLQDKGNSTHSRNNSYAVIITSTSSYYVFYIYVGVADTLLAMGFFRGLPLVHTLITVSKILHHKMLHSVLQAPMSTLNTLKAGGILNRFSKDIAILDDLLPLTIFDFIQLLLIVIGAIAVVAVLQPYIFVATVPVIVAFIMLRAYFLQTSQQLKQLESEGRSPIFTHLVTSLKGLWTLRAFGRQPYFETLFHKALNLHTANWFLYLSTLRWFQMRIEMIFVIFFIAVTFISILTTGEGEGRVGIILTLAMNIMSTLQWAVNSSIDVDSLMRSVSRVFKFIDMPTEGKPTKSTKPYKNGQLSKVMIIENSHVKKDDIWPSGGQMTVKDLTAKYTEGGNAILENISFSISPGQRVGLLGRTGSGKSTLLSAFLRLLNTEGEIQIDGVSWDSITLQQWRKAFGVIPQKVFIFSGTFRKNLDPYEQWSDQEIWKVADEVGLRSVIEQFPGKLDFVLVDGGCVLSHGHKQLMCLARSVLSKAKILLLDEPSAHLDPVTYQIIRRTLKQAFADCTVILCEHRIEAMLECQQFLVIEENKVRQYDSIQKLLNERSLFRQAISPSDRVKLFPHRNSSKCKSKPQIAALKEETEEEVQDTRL
row,SMILES,EC30
1,"Cc1cc(C)c(Oc2nc(-c3ccccn3)ccc2C(=O)NS(=O)(=O)c2cccc(N)n2)c(C)c1 [Compound 1278, N-[(6-amino-2-pyridyl)sulfonyl]-6-(2-pyridyl)-2-(2,4,6-trimethylphenoxy)pyridine-3-carboxamide]",+ (“+” means greater than 10 uM)
2,"CC(C)COc1cc(F)cc(-c2ccc(C(=O)NS(=O)(=O)c3cccc(N)n3)c(N3CCC(C)(C)CC3)n2)c1 [Compound 1279, N-[(6-amino-2-pyridyl)sulfonyl]-2-(4,4-dimethyl-1-piperidyl)-6-(3-fluoro-5-isobutoxy-phenyl)pyridine-3-carboxamide]",+++ (“+++” means <3 uM)
3,"Cc1cc(C)c(Oc2nc(C3CCCC3)ccc2C(=O)NS(=O)(=O)c2cccc(N)n2)c(C)c1 [Compound 1280, N-[(6-amino-2-pyridyl)sulfonyl]-6-cyclopentyl-2-(2,4,6-trimethylphenoxy)pyridine-3-carboxamide]",+++ (“+++” means <3 uM)
4,"CC(C)COc1cc(F)cc(-c2ccc(C(=O)NS(=O)(=O)c3ccn[nH]3)c(NC3CCCC(C(F)(F)F)C3)n2)c1 (centres unmarked) [Compound 1281, 6-(3-fluoro-5-isobutoxy-phenyl)-N-(1H-pyrazol-5-ylsulfonyl)-2-[[3-(trifluoromethyl)cyclohexyl]amino]pyridine-3-carboxamide]",++ (“++” means between 3 uM and 10 uM)
5,"CC(C)COc1cc(F)cc(-c2ccc(C(=O)NS(=O)(=O)c3ccn[nH]3)c(N3CCCC34CCC4)n2)c1 [Compound 1282, 2-(8-azaspiro[3.4]octan-8-yl)-6-(3-fluoro-5-isobutoxy-phenyl)-N-(1H-pyrazol-5-ylsulfonyl)pyridine-3-carboxamide]",+++ (“+++” means <3 uM)
6,"CC(C)Oc1ccc(-c2ccc(C(=O)NS(=O)(=O)c3cccc(N)n3)c(N3CCCC(C)(C)C3)n2)cn1 [Compound 1283, N-[(6-amino-2-pyridyl)sulfonyl]-2-(3,3-dimethyl-1-piperidyl)-6-(6-isopropoxy-3-pyridyl)pyridine-3-carboxamide]",+++ (“+++” means <3 uM)
7,"COc1nccc(-c2ccc(C(=O)NS(=O)(=O)c3cccc(N)n3)c(Oc3c(C)cc(C)cc3C)n2)c1Cl [Compound 1284, N-[(6-amino-2-pyridyl)sulfonyl]-6-(3-chloro-2-methoxy-4-pyridyl)-2-(2,4,6-trimethylphenoxy)pyridine-3-carboxamide]",+++ (“+++” means <3 uM)
8,"CC(C)Oc1cc(F)cc(-c2ccc(C(=O)NS(=O)(=O)c3ccn[nH]3)c(N3[C@H](C)CC[C@@H]3C)n2)c1 [Compound 1285, 2-[(2S,5R)-2,5-dimethylpyrrolidin-1-yl]-6-(3-fluoro-5-isopropoxy-phenyl)-N-(1H-pyrazol-5-ylsulfonyl)pyridine-3-carboxamide]",+++ (“+++” means <3 uM)
9,"CC(C)COc1cc(F)cc(-c2ccc(C(=O)NS(=O)(=O)c3ccn[nH]3)c(N3CCCC(C4CC4)C3)n2)c1 (centres unmarked) [Compound 1286, 2-(3-cyclopropyl-1-piperidyl)-6-(3-fluoro-5-isobutoxy-phenyl)-N-(1H-pyrazol-5-ylsulfonyl)pyridine-3-carboxamide]",+++ (“+++” means <3 uM)
10,"COc1ccc(C)c(-c2nc(N3CC(C)CC3(C)C)c(C(=O)NS(=O)(=O)c3cccc(N)n3)cc2C)c1 (centres unmarked) [Compound 1287, N-[(6-amino-2-pyridyl)sulfonyl]-6-(5-methoxy-2-methyl-phenyl)-5-methyl-2-(2,2,4-trimethylpyrrolidin-1-yl)pyridine-3-carboxamide]",+++ (“+++” means <3 uM)
11,"CC(C)Cn1cc(-c2ccc(C(=O)NS(=O)(=O)c3nccnc3N)c(N3CCC(C)CC3)n2)cn1 [Compound 1288, N-(3-aminopyrazin-2-yl)sulfonyl-6-(1-isobutylpyrazol-4-yl)-2-(4-methyl-1-piperidyl)pyridine-3-carboxamide]",++ (“++” means between 3 uM and 10 uM)
12,"CC(C)COc1cc(F)cc(-c2ccc(C(=O)NS(=O)(=O)c3cccc(N)n3)c(N3C[C@H](C)CC3(C)C)n2)c1 [Compound 1289, N-[(6-amino-2-pyridyl)sulfonyl]-6-(3-fluoro-5-isobutoxy-phenyl)-2-[(4R)-2,2,4-trimethylpyrrolidin-1-yl]pyridine-3-carboxamide]",+++ (“+++” means <3 uM)
13,"Cc1ccc(-c2ccc(C(=O)NS(=O)(=O)c3cccc(N)n3)c(Oc3c(C)cc(C)cc3C)n2)nc1 [Compound 1290, N-[(6-amino-2-pyridyl)sulfonyl]-6-(5-methyl-2-pyridyl)-2-(2,4,6-trimethylphenoxy)pyridine-3-carboxamide]",+++ (“+++” means <3 uM)
14,"Cc1cccc(C)c1Cn1c(C(=O)NS(=O)(=O)c2ccccc2)cc2cccnc21 [Compound 1291, N-(benzenesulfonyl)-1-[(2,6-dimethylphenyl)methyl]pyrrolo[2,3-b]pyridine-2-carboxamide]",++ (“++” means between 3 uM and 10 uM)
15,"Cc1ccc(-c2nc3c(cc2C(=O)NS(=O)(=O)c2ccn[nH]2)CCCC3(C)C)cc1 [Compound 1292, 8,8-dimethyl-2-(p-tolyl)-N-(1H-pyrazol-5-ylsulfonyl)-6,7-dihydro-5H-quinoline-3-carboxamide]",+ (“+” means greater than 10 uM)
16,"CCCOc1cc(-c2ccc(C(=O)NS(=O)(=O)c3ccc[nH]c3=O)c(N3[C@H](C)CC[C@@H]3C)n2)ccc1Cl [Compound 1293, 6-(4-chloro-3-propoxy-phenyl)-2-[(2R,5S)-2,5-dimethylpyrrolidin-1-yl]-N-[(2-oxo-1H-pyridin-3-yl)sulfonyl]pyridine-3-carboxamide]",++ (“++” means between 3 uM and 10 uM)
17,"Cc1cc(C)c(Oc2nc(C(C)(C)C)ccc2C(=O)NS(=O)(=O)c2csc(N)n2)c(C)c1 [Compound 1294, N-(2-aminothiazol-4-yl)sulfonyl-6-tert-butyl-2-(2,4,6-trimethylphenoxy)pyridine-3-carboxamide]",+++ (“+++” means <3 uM)
18,"Cc1cc(C)c(Oc2nc(-c3cccc(Cl)c3)ccc2C(=O)NS(=O)(=O)c2cccc(N)n2)c(C)c1 [Compound 1295, N-[(6-amino-2-pyridyl)sulfonyl]-6-(3-chlorophenyl)-2-(2,4,6-trimethylphenoxy)pyridine-3-carboxamide]",+++ (“+++” means <3 uM)
19,"Cc1cc(C)c(Oc2nc(-c3cccc(F)c3F)ccc2C(=O)NS(=O)(=O)c2ccc[nH]c2=O)c(C)c1 [Compound 1296, 6-(2,3-difluorophenyl)-N-[(2-oxo-1H-pyridin-3-yl)sulfonyl]-2-(2,4,6-trimethylphenoxy)pyridine-3-carboxamide]",+ (“+” means greater than 10 uM)
20,"Cc1cc(C)c(Oc2nc(C3(C)CC3)ccc2C(=O)NS(=O)(=O)c2ccc(N)cc2)c(C)c1 [Compound 1297, N-(4-aminophenyl)sulfonyl-6-(1-methylcyclopropyl)-2-(2,4,6-trimethylphenoxy)pyridine-3-carboxamide]",+++ (“+++” means <3 uM)
21,"COC1CCN(c2nc(C(C)(C)C)ccc2C(=O)NS(=O)(=O)c2ccc(N)cc2)CC1 [Compound 1298, N-(4-aminophenyl)sulfonyl-6-tert-butyl-2-(4-methoxy-1-piperidyl)pyridine-3-carboxamide]",++ (“++” means between 3 uM and 10 uM)
22,"Cc1cc(C)c(Oc2nc(-c3ccc4cn(C)nc4c3)ccc2C(=O)NS(=O)(=O)c2cccc(N)n2)c(C)c1 [Compound 1299, N-[(6-amino-2-pyridyl)sulfonyl]-6-(2-methylindazol-6-yl)-2-(2,4,6-trimethylphenoxy)pyridine-3-carboxamide]",++ (“++” means between 3 uM and 10 uM)
23,"Cc1ccc(-c2ccc(C(=O)NS(=O)(=O)c3ccc[nH]c3=O)c(Oc3c(C)cc(C)cc3C)n2)cc1 [Compound 1300, N-[(2-oxo-1H-pyridin-3-yl)sulfonyl]-6-(p-tolyl)-2-(2,4,6-trimethylphenoxy)pyridine-3-carboxamide]",+++ (“+++” means <3 uM)
24,"CCOc1ccc(F)c(-c2ccc(C(=O)NS(=O)(=O)c3ccc[nH]c3=O)c(Oc3c(C)cc(C)cc3C)n2)c1 [Compound 1301, 6-(5-ethoxy-2-fluoro-phenyl)-N-[(2-oxo-1H-pyridin-3-yl)sulfonyl]-2-(2,4,6-trimethylphenoxy)pyridine-3-carboxamide]",++ (“++” means between 3 uM and 10 uM)
25,"CC(C)COc1cc(F)cc(-c2ccc(C(=O)NS(=O)(=O)c3ccn[nH]3)c(N3CCCC3(C)C)n2)c1 [Compound 1302, 2-(2,2-dimethylpyrrolidin-1-yl)-6-(3-fluoro-5-isobutoxy-phenyl)-N-(1H-pyrazol-5-ylsulfonyl)pyridine-3-carboxamide]",++ (“++” means between 3 uM and 10 uM)
26,"CC(C)COc1cc(F)cc(-c2ccc(C(=O)NS(=O)(=O)c3cccc(N)n3)c(N3CCC4(CCC4)CC3)n2)c1 [Compound 1303, N-[(6-amino-2-pyridyl)sulfonyl]-2-(7-azaspiro[3.5]nonan-7-yl)-6-(3-fluoro-5-isobutoxy-phenyl)pyridine-3-carboxamide]",+++ (“+++” means <3 uM)
27,"CC(C)COc1cc(F)cc(-c2ccc(C(=O)NS(=O)(=O)c3cccc(N)n3)c(N3CCC[C@H]3C(F)(F)F)n2)c1 [Compound 1304, N-[(6-amino-2-pyridyl)sulfonyl]-6-(3-fluoro-5-isobutoxy-phenyl)-2-[(2S)-2-(trifluoromethyl)pyrrolidin-1-yl]pyridine-3-carboxamide]",+++ (“+++” means <3 uM)
28,"COc1c(C(C)(C)C)nn(Cc2c(C)cc(C)cc2C)c1C(=O)NS(=O)(=O)c1cccc(N)c1 [Compound 1305, N-(3-aminophenyl)sulfonyl-5-tert-butyl-4-methoxy-2-[(2,4,6-trimethylphenyl)methyl]pyrazole-3-carboxamide]",+++ (“+++” means <3 uM)
29,"Cc1cc(C)c(Oc2nc(N(C)C)ccc2C(=O)NS(=O)(=O)c2cccc(N)n2)c(C)c1 [Compound 1306, N-[(6-amino-2-pyridyl)sulfonyl]-6-(dimethylamino)-2-(2,4,6-trimethylphenoxy)pyridine-3-carboxamide]",+++ (“+++” means <3 uM)
